{
  "source": "the NIST ThermoML archive (doi:10.1016/j.jct.2018.02.025)",
  "settings": "Transpiration method",
  "note": "Values joined by “and” are separate entries in the source; they are usually repeats but may differ in a detail not shown here. Equal entries are not always repeated. ± gives the expanded uncertainty stated by the source.",
  "data": [
    {"smiles": "c1ccc(-c2ccccc2)cc1", "note": "[biphenyl]", "values": [
      {"measurement": "vapor or sublimation pressure", "setting": "295.4 K, Crystal", "result": "0.00091 ± 7e-05", "unit": "kPa"},
      {"measurement": "vapor or sublimation pressure", "setting": "298.2 K, Crystal", "result": "0.00126 ± 0.0001", "unit": "kPa"},
      {"measurement": "vapor or sublimation pressure", "setting": "303.3 K, Crystal", "result": "0.00236 ± 0.00016", "unit": "kPa"},
      {"measurement": "vapor or sublimation pressure", "setting": "308.2 K, Crystal", "result": "0.00383 ± 0.00026", "unit": "kPa"},
      {"measurement": "vapor or sublimation pressure", "setting": "313.2 K, Crystal", "result": "0.00653 ± 0.00046", "unit": "kPa"},
      {"measurement": "vapor or sublimation pressure", "setting": "315.4 K, Crystal", "result": "0.00777 ± 0.00054", "unit": "kPa"},
      {"measurement": "vapor or sublimation pressure", "setting": "318.3 K, Crystal", "result": "0.01045 ± 0.00072", "unit": "kPa"},
      {"measurement": "vapor or sublimation pressure", "setting": "323.5 K, Crystal", "result": "0.01637 ± 0.0011", "unit": "kPa"},
      {"measurement": "vapor or sublimation pressure", "setting": "325.8 K, Crystal", "result": "0.02135 ± 0.0014", "unit": "kPa"},
      {"measurement": "vapor or sublimation pressure", "setting": "328.4 K, Crystal", "result": "0.02749 ± 0.0018", "unit": "kPa"},
      {"measurement": "vapor or sublimation pressure", "setting": "331.3 K, Crystal", "result": "0.03389 ± 0.0022", "unit": "kPa"},
      {"measurement": "vapor or sublimation pressure", "setting": "333.4 K, Crystal", "result": "0.0404 ± 0.0026", "unit": "kPa"},
      {"measurement": "vapor or sublimation pressure", "setting": "335.8 K, Crystal", "result": "0.04928 ± 0.0032", "unit": "kPa"},
      {"measurement": "vapor or sublimation pressure", "setting": "338.4 K, Crystal", "result": "0.06189 ± 0.004", "unit": "kPa"},
      {"measurement": "vapor or sublimation pressure", "setting": "345.7 K, Liquid", "result": "0.1041 ± 0.011", "unit": "kPa"},
      {"measurement": "vapor or sublimation pressure", "setting": "347.7 K, Liquid", "result": "0.1176 ± 0.013", "unit": "kPa"},
      {"measurement": "vapor or sublimation pressure", "setting": "348.3 K, Liquid", "result": "0.1226 ± 0.013", "unit": "kPa"},
      {"measurement": "vapor or sublimation pressure", "setting": "350.4 K, Liquid", "result": "0.1376 ± 0.015", "unit": "kPa"},
      {"measurement": "vapor or sublimation pressure", "setting": "353.3 K, Liquid", "result": "0.1597 ± 0.017", "unit": "kPa"},
      {"measurement": "vapor or sublimation pressure", "setting": "358.3 K, Liquid", "result": "0.2153 ± 0.023", "unit": "kPa"},
      {"measurement": "vapor or sublimation pressure", "setting": "363.3 K, Liquid", "result": "0.2837 ± 0.03", "unit": "kPa"},
      {"measurement": "vapor or sublimation pressure", "setting": "368.2 K, Liquid", "result": "0.3498 ± 0.037 kPa and 0.3659 ± 0.039 kPa"},
      {"measurement": "vapor or sublimation pressure", "setting": "373.1 K, Liquid", "result": "0.4791 ± 0.051", "unit": "kPa"},
      {"measurement": "vapor or sublimation pressure", "setting": "375.4 K, Liquid", "result": "0.5425 ± 0.058", "unit": "kPa"},
      {"measurement": "vapor or sublimation pressure", "setting": "376.2 K, Liquid", "result": "0.5682 ± 0.061", "unit": "kPa"}
    ]}
  ]
}
